Where “and” joins values, the source holds several entries; their conditions need not be identical. Identical values can stand only once. Calls of active or inactive are those of the source. No rule for the calls is given here.

For 57 compounds, EC50 results are on record in PubChem BioAssay AID493145 (Sanford-Burnham Center for Chemical Genomics, 2011).

The target in this experiment is Intestinal-type alkaline phosphatase (Homo sapiens) (UniProt P09923). The experiment can be described thus: activation of human intestinal phosphatase enzyme – biochemical, human enzyme for mouse series, mouse IAP activator project, SAR follow-up (AID 493145). The following applies: purified human intestinal alkaline phosphatase, enzymatic activity.
Intestinal-type alkaline phosphatase (Homo sapiens), sequence (P09923 whole entry, looked up): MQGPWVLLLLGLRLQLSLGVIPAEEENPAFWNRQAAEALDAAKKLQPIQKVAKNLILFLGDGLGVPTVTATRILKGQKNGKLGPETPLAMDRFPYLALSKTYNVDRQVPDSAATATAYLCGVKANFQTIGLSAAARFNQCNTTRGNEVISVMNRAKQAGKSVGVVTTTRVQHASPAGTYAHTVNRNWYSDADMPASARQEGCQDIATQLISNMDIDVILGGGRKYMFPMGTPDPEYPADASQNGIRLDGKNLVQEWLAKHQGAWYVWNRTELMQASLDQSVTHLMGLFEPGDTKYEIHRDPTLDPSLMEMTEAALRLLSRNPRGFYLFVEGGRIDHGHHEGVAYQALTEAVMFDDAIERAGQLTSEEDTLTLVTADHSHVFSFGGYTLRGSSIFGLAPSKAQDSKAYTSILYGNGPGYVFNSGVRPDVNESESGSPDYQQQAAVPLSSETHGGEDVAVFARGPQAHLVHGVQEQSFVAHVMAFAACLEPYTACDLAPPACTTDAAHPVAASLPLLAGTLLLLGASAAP

Regarding `COc1cc(C(=O)NNC(=O)c2n[nH]c3ccccc23)cc(OC)c1OC`, the EC50 (as a rule, the concentration needed to bring the measured effect to its halfway point) is 24 µM.
With `CN(C(=O)CN1C(=O)/C(=C\c2ccco2)SC1=S)C1CCS(=O)(=O)C1` (configuration not stated), the EC50 was > 100 µM (inactive).
Regarding `CCc1nnc(NC(=O)CSc2sc3c(O)cc(=O)[nH]c3c2C#N)s1`, the EC50 was > 100 µM (inactive).
Consider `O=C(N/N=C/c1ccsc1)c1cc(O)c(O)c(O)c1`, for which the EC50 is > 100 µM (inactive).
For `Cc1ccc(NC(=O)CSc2sc3c(O)cc(=O)[nH]c3c2C#N)c(F)c1`, the EC50 is > 100 µM (inactive).
Consider `CCOC(=O)N1CCC(NC(=O)CSc2sc3c(O)cc(=O)[nH]c3c2C#N)CC1`, for which the EC50 is > 100 µM (inactive).
As to `COc1ccc(NC(=O)C(CC(C)C)NS(=O)(=O)c2ccc3[nH]c(=O)oc3c2)cc1` (configuration not stated), the EC50 was > 100 µM (inactive).
The result for `N#Cc1c(SCC(=O)Nc2ccccc2C(F)(F)F)sc2c(O)cc(=O)[nH]c12` reads > 100 µM (inactive); that for `O=C(CN1C(=O)/C(=C/c2ccco2)SC1=S)Nc1ccc(O)c(C(=O)O)c1`, > 100 µM (inactive).
The result for `COc1ccc(N2CCN(C(=O)CN3C(=O)/C(=C\c4ccco4)SC3=S)CC2)cc1` reads > 100 µM (inactive).
The result for `COC(=O)NNC(=O)c1cc(OC)c(OC)c(OC)c1` reads > 100 µM (inactive).
On to `O=C(CN1C(=O)/C(=C\c2ccco2)SC1=S)Nc1ccccc1C(=O)O`, for which the EC50 was > 100 µM (inactive).
As for `CC(C(=O)Nc1ccccc1C(=O)O)N1C(=O)/C(=C\c2ccco2)SC1=S` (configuration not stated), the EC50 was > 100 µM (inactive).
To `O=C(NN=Cc1cccnc1)c1cc(O)c(O)c(O)c1` belongs > 100 µM (inactive); to `COc1cc(C(=O)NNC(=S)NC(=O)c2ccccc2C)cc(OC)c1OC`, 21.4 µM.
Take `COc1cccc(CNC(=O)CCNS(=O)(=O)c2ccc3[nH]c(=O)oc3c2)c1`: the EC50 was > 100 µM (inactive).
On to `N#Cc1c(SCC(=O)Nc2nncs2)sc2c(O)cc(=O)[nH]c12`, for which the EC50 was > 100 µM (inactive).
`CCc1ccc(NC(=O)CN(C)S(=O)(=O)c2ccc3[nH]c(=O)oc3c2)cc1`: the EC50 was > 100 µM (inactive).
Take `CCOC(=O)NC(=O)CSc1sc2c(O)cc(=O)[nH]c2c1C#N`: the EC50 was > 100 µM (inactive).
On to `CC(C(=O)Nc1cccc(C(=O)O)c1)N1C(=O)/C(=C\c2ccco2)SC1=S` (configuration not stated), for which the EC50 is > 100 µM (inactive).
As for `Cc1cc(NC(=O)CSc2sc3c(O)cc(=O)[nH]c3c2C#N)ccc1Br`, the EC50 was > 100 µM (inactive).
With `COc1ccccc1NC(=O)CSc1sc2c(O)cc(=O)[nH]c2c1C#N`, the EC50 is > 100 µM (inactive).
To `COc1cc(C(=O)NN=Cc2ccccn2)cc(OC)c1OC` belongs 30.8 µM.
The result for `CC(C(=O)NCCc1ccc(O)cc1)N1C(=O)/C(=C/c2ccco2)SC1=S` (configuration not stated) reads > 100 µM (inactive).
For the compound `CC(C(=O)N(C)C1CCS(=O)(=O)C1)N1C(=O)/C(=C/c2ccco2)SC1=S` (configuration not stated), the EC50 was > 100 µM (inactive).
The result for `O=C(CN1C(=O)/C(=C/c2ccco2)SC1=S)Nc1ccc2nccnc2c1` reads > 100 µM (inactive); that for `CCN(C(=O)CN1C(=O)/C(=C\c2ccco2)SC1=S)C1CCS(=O)(=O)C1` (configuration not stated), 42.6 µM; that for `O=C(CCCN1C(=O)/C(=C/c2ccco2)SC1=S)Nc1ccccc1`, > 100 µM (inactive).
For the compound `O=C(NCCc1ccc(Cl)cc1)C1CCCN(S(=O)(=O)c2ccc3[nH]c(=O)oc3c2)C1` (configuration not stated), the EC50 is > 100 µM (inactive).
`COc1cc(C(=O)NNc2nc3cc4c(cc3s2)OCO4)cc(OC)c1OC`: the EC50 was 13.5 µM.
To `N#Cc1c(SCC(=O)Nc2cccc(F)c2)sc2c(O)cc(=O)[nH]c12` belongs > 100 µM (inactive); to `CCOc1ccccc1NC(=O)CCNS(=O)(=O)c1ccc2[nH]c(=O)oc2c1`, > 100 µM (inactive); to `COc1ccc(NC(=O)CSc2sc3c(O)cc(=O)[nH]c3c2C#N)c(OC)c1`, > 100 µM (inactive).
As to `NS(=O)(=O)c1ccc(-c2ccc(/C=C3\SC(=S)N(C4CCS(=O)(=O)C4)C3=O)o2)cc1` (configuration not stated), the EC50 was > 100 µM (inactive).
To `CC(C)N1CCC(=NNC(=O)c2cc(O)c(O)c(O)c2)CC1` belongs > 100 µM (inactive) and 66.6 µM; to `COC(=O)c1ccc(C)c(NC(=O)CSc2sc3c(O)cc(=O)[nH]c3c2C#N)c1`, > 100 µM (inactive); to `C/C(=N\NC(=O)c1cc(O)c(O)c(O)c1)c1ccncc1`, > 100 µM (inactive).
To `O=C(CN1C(=O)/C(=C\c2ccco2)SC1=S)Nc1cccc(C(=O)O)c1` belongs > 100 µM (inactive); to `N#Cc1c(SCC(=O)Nc2ccc(C(F)(F)F)cc2)sc2c(O)cc(=O)[nH]c12`, > 100 µM (inactive); to `COc1ccc(CNC(=O)CSc2sc3c(O)cc(=O)[nH]c3c2C#N)cc1OC`, > 100 µM (inactive).
The result for `CCSc1nnc(NC(=O)CSc2sc3c(O)cc(=O)[nH]c3c2C#N)s1` reads > 100 µM (inactive); that for `N#Cc1c(SCC(=O)Nc2nc3ccc(Br)cc3s2)sc2c(O)cc(=O)[nH]c12`, > 100 µM (inactive).
With `CCN(CC)C(=O)CSc1sc2c(O)cc(=O)[nH]c2c1C#N`, the EC50 is > 100 µM (inactive).
Consider `O=C(CCN1C(=O)/C(=C/c2ccco2)SC1=S)Nc1ccc(C(=O)O)c(O)c1`, for which the EC50 was > 100 µM (inactive).
The result for `O=C(N/N=C/C1CC2CCC1C2)c1cc(O)c(O)c(O)c1` (configuration not stated) reads > 100 µM (inactive); that for `COc1ccc(CNC(=O)CSc2sc3c(O)cc(=O)[nH]c3c2C#N)cc1`, > 100 µM (inactive); that for `CCOc1ccccc1CNC(=O)CCNS(=O)(=O)c1ccc2[nH]c(=O)oc2c1`, > 100 µM (inactive).
Regarding `Cc1ccc(C)c(NC(=O)CCNS(=O)(=O)c2ccc3[nH]c(=O)oc3c2)c1`, the EC50 was > 100 µM (inactive).
To `CCCSc1nnc(NC(=O)CSc2sc3c(O)cc(=O)[nH]c3c2C#N)s1` belongs > 100 µM (inactive); to `Cc1ccc(/C=C2\SC(=S)N(C3CCS(=O)(=O)C3)C2=O)o1` (configuration not stated), > 100 µM (inactive); to `O=C(N/N=C/c1ccccc1F)c1cc(O)c(O)c(O)c1`, > 100 µM (inactive).
Take `Cc1ccc(/C=N/NC(=O)c2cc(O)c(O)c(O)c2)cc1`: the EC50 is > 100 µM (inactive).
To `COc1ccc(OC)c(NC(=O)CSc2sc3c(O)cc(=O)[nH]c3c2C#N)c1` belongs > 100 µM (inactive); to `O=C(O)CC(C(=O)O)N1C(=O)/C(=C/c2ccc(-c3nc4ccccc4s3)o2)SC1=S` (configuration not stated), > 100 µM (inactive).
For the compound `O=C(N/N=C/C1CC=CCC1)c1cc(O)c(O)c(O)c1` (configuration not stated), the EC50 is > 100 µM (inactive).
The result for `COc1cc(Cl)c(C)cc1NC(=O)CSc1sc2c(O)cc(=O)[nH]c2c1C#N` reads > 100 µM (inactive).
Consider `COc1cc(C(=O)NNC(=O)C2CC2)cc(OC)c1OC`, for which the EC50 was > 100 µM (inactive).
